Experimental data: the NIST ThermoML archive (doi:10.1021/acs.jced.7b01011)
Numbers after ± are expanded uncertainties.

What was measured:
[1] = Molar enthalpy of transition or fusion; conditions: Crystal; DSC
[2] = Crystal; DTA

Molar enthalpy of transition or fusion [1]: 6.16 ± 0.232 kcal/mol
Normal melting temperature [2]: 108.00 ± 1.1 °C
Structure (SMILES): Cc1ccc(NC(=O)/C(=C/Cl)Sc2ccccc2)cc1 [(Z)-3-chloro-2-phenylthio-N-(p-tolyl)acrylamide]
